Reference: ChEMBL document CHEMBL1201862, “PubChem BioAssay data set” (2004)
The source made the active and inactive calls.

Key:
[1] = target: Nonstructural protein 1 (Influenza A virus, UniProt Q194T2); type: functional, Influenza A virus (A/California/07/2009(H1N1))
[2] = target: T1, Protein skinhead-1 (Caenorhabditis elegans, UniProt P34707); type: functional
T1 sequence (P34707 whole entry): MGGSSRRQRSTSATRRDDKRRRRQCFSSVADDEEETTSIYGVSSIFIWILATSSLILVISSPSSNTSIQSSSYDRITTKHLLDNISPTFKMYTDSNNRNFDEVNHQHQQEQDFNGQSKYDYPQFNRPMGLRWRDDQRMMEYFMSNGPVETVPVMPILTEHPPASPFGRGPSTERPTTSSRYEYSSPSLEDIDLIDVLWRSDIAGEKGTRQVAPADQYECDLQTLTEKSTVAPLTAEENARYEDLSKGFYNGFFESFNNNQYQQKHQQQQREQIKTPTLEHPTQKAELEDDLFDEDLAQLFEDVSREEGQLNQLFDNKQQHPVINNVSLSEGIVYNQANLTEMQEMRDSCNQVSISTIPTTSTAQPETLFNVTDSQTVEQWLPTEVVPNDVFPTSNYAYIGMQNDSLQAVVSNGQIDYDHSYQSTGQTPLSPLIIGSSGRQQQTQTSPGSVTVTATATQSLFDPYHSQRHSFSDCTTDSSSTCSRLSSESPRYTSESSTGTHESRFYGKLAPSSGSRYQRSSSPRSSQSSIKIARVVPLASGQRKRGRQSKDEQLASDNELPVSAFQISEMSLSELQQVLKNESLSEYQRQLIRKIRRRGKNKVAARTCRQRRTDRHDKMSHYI

[3] = target: T2, Caspase-7 (Homo sapiens, UniProt P55210); assay: human caspase-7 inhibitors, dose response, selectivity assay for caspase-6 inhibitor project, biochemical, DEVD-R110 fluorescence, cherry-pick (AID 743295)
T2 sequence (P55210 whole entry): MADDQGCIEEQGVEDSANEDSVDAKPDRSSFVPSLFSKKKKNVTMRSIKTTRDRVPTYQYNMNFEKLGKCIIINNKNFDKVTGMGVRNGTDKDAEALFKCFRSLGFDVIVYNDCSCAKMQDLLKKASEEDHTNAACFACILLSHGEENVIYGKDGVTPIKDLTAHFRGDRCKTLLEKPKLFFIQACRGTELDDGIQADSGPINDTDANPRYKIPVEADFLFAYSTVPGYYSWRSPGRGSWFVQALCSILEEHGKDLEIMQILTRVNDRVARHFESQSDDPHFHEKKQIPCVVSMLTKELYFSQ

[4] = target: T3, Caspase-3 (Homo sapiens, UniProt P42574); assay: Dose-response confirmation of uHTS inhibitor hits of Sentrin-Specific Protease 8 in a Caspase-3 Fluorescence assay.; type: functional
T3 sequence (P42574 whole entry): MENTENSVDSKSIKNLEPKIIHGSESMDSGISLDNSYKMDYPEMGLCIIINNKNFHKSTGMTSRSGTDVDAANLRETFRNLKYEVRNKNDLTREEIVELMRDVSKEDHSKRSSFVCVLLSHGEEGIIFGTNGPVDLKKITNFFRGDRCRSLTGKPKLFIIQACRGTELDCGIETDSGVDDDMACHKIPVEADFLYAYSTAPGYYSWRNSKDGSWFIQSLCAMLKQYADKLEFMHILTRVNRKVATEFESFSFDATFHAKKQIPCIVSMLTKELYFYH

Chain of Nonstructural protein 1 (Q194T2 whole entry): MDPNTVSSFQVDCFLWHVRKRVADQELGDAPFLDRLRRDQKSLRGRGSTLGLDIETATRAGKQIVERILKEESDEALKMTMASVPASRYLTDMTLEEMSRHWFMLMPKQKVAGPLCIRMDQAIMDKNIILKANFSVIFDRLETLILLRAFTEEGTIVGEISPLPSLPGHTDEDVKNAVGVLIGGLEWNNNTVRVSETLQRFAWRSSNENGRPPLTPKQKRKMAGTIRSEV

Q: With `CCN(CC)CCOc1ccc2c(c1)C(=NNC(=O)c1ccccn1)c1cc(OCCN(CC)CC)ccc1-2` as the compound, how does the IC50 [1] read?
A: Its IC50 is 13.8 µM (active).

Q: Which IC50 [2] does the source give for `O=C(O)c1ccc2c(c1)[C@@H]1C=CC[C@@H]1[C@H](c1ccccn1)N2` here?
A: The IC50 was > 100 µM (inactive).

Q: How did the AC50 [3] turn out when `Oc1nc(Nc2ccc(F)cc2)cc2ccccc12` was run?
A: Its AC50 is 2.11 µM (active).

Q: `CN(C)c1cc(N/N=C\c2ccccc2)nc(N(C)C)n1` was tested. Which IC50 [4] did it give?
A: The IC50 was 50.7 µM (active).
